Results reported in patent US7579356B2, “Thia-tetraazaacenaphthylene kinase inhibitors” (Janssen Pharmaceutica NV, priority 2005, dated 2009).

Columns and labels:
[1] = biological target: T1, EGFR (Homo sapiens, UniProt P00533); experiment: EGFR Kinase Assay; type: biochemical; details: for IC50: GST-EGFR, ATP 5 μM; for inhibition at 2 µM: test concentration of 2 μM, compounds without an IC50, read-out: EGFR inhibition in percent
T1 construct: The intracellular portion of EGFR started at nucleotide 2189 (corresponding to amino acid 667) and ended at the termination codon; made in house; host or cells: Sf9 insect cells (baculovirus)
From the text: The EGFR kinase used was a fusion of Glutathione-S-Transferase (GST) and a PCR amplified intracellular portion of EGFR (Accession Number NM_005228). The intracellular portion of EGFR started at nucleotide 2189 (corresponding to amino acid 667) and ended at the termination codon. The portion was PCR amplified with primers that added the lambda attB sequences to each end, recombined into an entry vector, then into a GST destination vector (as described in Gateway Technologies Manual by Invitrogen Corporation, Carlsbad, Calif.).
The destination vector was recombined in the DH10BAC strain of bacteria to produce a bacmid. The bacmid was transfected into Sf 9 cells and the supernatant containing the baculovirus was collected. The GSTEGFR protein was purified using large cultures of Sf 9 cells infected with stock virus. After an appropriate period of time, the cells were collected and lysed. The GSTEGFR was then purified from the lysate on Glutathione-Sepharose columns (as described by Amersham Biosciences, Buckinghamshire, United Kingdom).
The EGFR substrate was prepared by biotinylating polyGluTyr (128 mg) (Sigma, St. Louis, Mo.) in a 1×PBS buffer incubated together with a 12-fold molar excess of Sulfo-NHS-LC-Biotin on ice for at least 2 hrs. The free biotin was separated from the biotinylated polyGluTyr on a gel filtration column.
A mixture of a 10× kinase buffer (500 mM Tris at pH 8.0, 100 mM Magnesium Chloride and 1 mM Sodium Vanadate), DTT (1 mM final from 500 mM stock), ATP (5 μM final from 10 mM stock), biotinylated polyGluTyr (10 μg/μL stock), γ-^33P ATP (10 μCl/μL stock) and water was added to each well (for a total of 90 μL/well) of a Streptavidin Flashplate (Perkin Elmer, Wellesley, Mass.).
Test compound in 100% DMSO (2 μL) was added to the appropriate wells. Diluted GSTEGFR (1:300 dilution in 50 mM Tris at pH 8.0 and 0.1% bovine serum albumin) (10 μL) was added to the wells to initiate the reactions.
The plates were incubated at 30° C. for 1 hr with shaking. The reacted contents were removed and the plates were sequentially washed three times with a 1×PBS stop buffer (300 μL without Magnesium and Calcium) and 100 mM EDTA. After the final wash, the same stop buffer (200 μL) was added to the wells. The plates were then sealed and read on the TopCount scintillation counter.
Test compounds were assayed in triplicate at 16 concentrations at half-log dilutions starting at 200 uM. A maximum and minimum signal for the assay was determined on each plate. The percent inhibition of a test compound was calculated according to the formula: […]
For a series of test concentrations, the IC50 was derived by graphing percent inhibition against the log of the concentrations tested for a given compound. For those compounds without an IC50, the inhibition values in percent are shown at a test concentration of 2 μM. For compounds with multiple values, each value represents a separate assay result.

[2] = biological target: T2, HER-2 (Homo sapiens, UniProt P04626); experiment: HER-2 Kinase Assay; type: biochemical; details: for IC50: value in parentheses; for inhibition at 1 µM: test concentration of 1 μM
T2 construct: His6 with thrombin site (N); purchased Proqinase (Freiburg, Germany)
Method: The HER-2 kinase used was purified at Proqinase (Freiburg, Germany) from a construct that consisted of a fusion of GST (Glutathione-S-Transferase), HIS6-Thrombin and the nucleotides encoding amino acids 679 to 1255 of HER-2 (Accession Number M11730).
A mixture of a 10× kinase reaction buffer (600 mM Hepes at pH 7.5, 30 mM Magnesium Chloride, 0.03 mM Sodium Vanadate and 500 μg/mL PEG 20,000), DTT (1.2 mM final from a 10 mM stock), APT (1 μM from a 10 mM stock), biotinylated polyGluTyr (1.5 ng/μL final from stock of 1 μg/μL) prepared by Upstate Biotechnologies, Lake Placid, N.Y.), Manganese Chloride (3 mM final from a 1 M stock), γ-^33P-ATP (10 μCl/μL stock) and water (70 μL/well) was added to each well of a Streptavidin Flashplate (Cat. # SMP103, NEN, Boston, Mass.).
Test compound stock (1 μL) was added to the appropriate wells. Diluted GSTHER2 kinase (6.7 ng/μL diluted into 50 mM Tris-HCl at pH 8.0 and 0.1% bovine serum albumin) (30 μL) was added (total volume of 200 ng/well) to initiate the reactions.
The reaction plates were incubated at 30° C. for 1 hr. The reaction was terminated by aspirating the reaction mixture from the plate wells and washing the wells three times with a 1×PBS stop buffer (300 μL) and 100 mM EDTA. After the final wash, the same stop buffer (200 μL) was again added to the wells. The plates were then sealed and read on the TopCount scintillation counter.
The Her-2 inhibition values were derived according to the procedure described in Example 164 and are shown as percent in Table 4 at a test concentration of 1 μM. For those compounds with an IC50, the IC50 value in μM is shown in parentheses. For compounds with multiple test values, each value represents a separate assay result.

## 4-oxo-5-(4-phenoxy-phenyl)-4,5-dihydro-3H-1-thia-3,5,6,8-tetraaza-acenaphthylene-2-carboxylic acid (4-morpholin-4-ylmethyl-3-trifluoromethoxy-phenyl)-amide [Cpd 240]
[1]
  IC50: 31 nM
[2]
  IC50: 227 nM

## O=C(Nc1ccc(CN2CCCC2)cc1)c1sc2ncnc3c2c1NC(=O)N3c1ccc(F)c(Cl)c1 [Cpd 7, 5-(3-chloro-4-fluoro-phenyl)-4-oxo-4,5-dihydro-3H-1-thia-3,5,6,8-tetraaza-acenaphthylene-2-carboxylic acid (4-pyrrolidin-1-ylmethyl-phenyl)-amide]
[1]
  IC50: 7 nM
[2]
  inhibition at 1 µM: 69%

## O=C(Nc1ccc(CN2CCOCC2)cc1)c1sc2ncnc3c2c1NC(=O)N3c1ccc(F)c(Cl)c1 [Cpd 13, 5-(3-chloro-4-fluoro-phenyl)-4-oxo-4,5-dihydro-3H-1-thia-3,5,6,8-tetraaza-acenaphthylene-2-carboxylic acid (4-morpholin-1-ylmethyl-phenyl)-amide]
[1]
  IC50: 41 nM
[2]
  inhibition at 1 µM: 40%
  IC50: 804 nM

## CN1CCN(Cc2ccc(NC(=O)c3sc4ncnc5c4c3NC(=O)N5c3ccc(F)c(Cl)c3)cc2)CC1 [Cpd 14, 5-(3-chloro-4-fluoro-phenyl)-4-oxo-4,5-dihydro-3H-1-thia-3,5,6,8-tetraaza-acenaphthylene-2-carboxylic acid [4-(4-methyl-piperazin-1-ylmethyl)-phenyl]-amide]
[1]
  IC50: 43 nM
[2]
  inhibition at 1 µM: -1%

## C#Cc1cccc(N2C(=O)Nc3c(C(=O)Nc4ccc(CN5CCCC5)cc4)sc4ncnc2c34)c1 [Cpd 15, 5-(3-ethynyl-phenyl)-4-oxo-4,5-dihydro-3H-1-thia-3,5,6,8-tetraaza-acenaphthylene-2-carboxylic acid (4-pyrrolidin-1-ylmethyl-phenyl)-amide]
[1]
  IC50: 26 nM
[2]
  inhibition at 1 µM: 21%

## O=C(Nc1ccc(CN2CCCCC2)cc1)c1sc2ncnc3c2c1NC(=O)N3c1ccc(Cl)cc1Cl [Cpd 25, 5-(2,4-dichloro-phenyl)-4-oxo-4,5-dihydro-3H-1-thia-3,5,6,8-tetraaza-acenaphthylene-2-carboxylic acid (4-piperidin-1-ylmethyl-phenyl)-amide]
[1]
  IC50: 168 nM
[2]
  IC50: 768 nM

## O=C(Nc1ccc(CN2CCOCC2)cc1)c1sc2ncnc3c2c1NC(=O)N3c1ccc(Cl)cc1Cl [Cpd 29, 5-(2,4-dichloro-phenyl)-4-oxo-4,5-dihydro-3H-1-thia-3,5,6,8-tetraaza-acenaphthylene-2-carboxylic acid (4-morpholin-4-ylmethyl-phenyl)-amide]
[1]
  IC50: 873 nM
[2]
  IC50: 884 nM

## COc1ccc(N2C(=O)Nc3c(C(=O)Nc4ccc(CN5CCCCC5)cc4)sc4ncnc2c34)c(F)c1 [Cpd 66, 5-(2-fluoro-4-methoxy-phenyl)-4-oxo-4,5-dihydro-3H-1-thia-3,5,6,8-tetraaza-acenaphthylene-2-carboxylic acid (4-piperidin-1-ylmethyl-phenyl)-amide]
[1]
  IC50: 524 nM
[2]
  inhibition at 1 µM: 11%

## COc1ccc(N2C(=O)Nc3c(C(=O)Nc4ccc(OCC5CCCCO5)c(OC)c4)sc4ncnc2c34)c(F)c1 (centres unmarked) [Cpd 68, 5-(2-fluoro-4-methoxy-phenyl)-4-oxo-4,5-dihydro-3H-1-thia-3,5,6,8-tetraaza-acenaphthylene-2-carboxylic acid [3-methoxy-4-(tetrahydro-pyran-2-ylmethoxy)-phenyl]-amide]
[1]
  IC50: 690 nM
[2]
  inhibition at 1 µM: -8%

## COc1ccc(N2C(=O)Nc3c(C(=O)Nc4ccc(OC)c(OC)c4)sc4ncnc2c34)c(F)c1 [Cpd 69, 5-(2-fluoro-4-methoxy-phenyl)-4-oxo-4,5-dihydro-3H-1-thia-3,5,6,8-tetraaza-acenaphthylene-2-carboxylic acid (3,4-dimethoxy-phenyl)-amide]
[1]
  IC50: 970 nM
[2]
  inhibition at 1 µM: -3%

## COc1ccc(Cl)cc1N1C(=O)Nc2c(C(=O)Nc3ccc(CN4CCCCC4)cc3)sc3ncnc1c23 [Cpd 72, 5-(5-chloro-2-methoxy-phenyl)-4-oxo-4,5-dihydro-3H-1-thia-3,5,6,8-tetraaza-acenaphthylene-2-carboxylic acid (4-piperidin-1-ylmethyl-phenyl)-amide]
[1]
  inhibition at 2 µM: 57%
[2]
  inhibition at 1 µM: 4%

## COc1cc(NC(=O)c2sc3ncnc4c3c2NC(=O)N4c2cc(Cl)ccc2OC)ccc1OCCN1CCCCC1 [Cpd 74, 5-(5-chloro-2-methoxy-phenyl)-4-oxo-4,5-dihydro-3H-1-thia-3,5,6,8-tetraaza-acenaphthylene-2-carboxylic acid [3-methoxy-4-(2-piperidin-1-yl-ethoxy)-phenyl]-amide]
[1]
  inhibition at 2 µM: 56%
[2]
  inhibition at 1 µM: 4%

## COc1ccc(Cl)cc1N1C(=O)Nc2c(C(=O)Nc3ccc(CN(C)C[C@H]4CCCO4)cc3)sc3ncnc1c23 [Cpd 75, 5-(5-chloro-2-methoxy-phenyl)-4-oxo-4,5-dihydro-3H-1-thia-3,5,6,8-tetraaza-acenaphthylene-2-carboxylic acid [4-({methyl-[(2R)-tetrahydro-furan-2-ylmethyl]-amino}-methyl)-phenyl]-amide]
[1]
  inhibition at 2 µM: 46%
[2]
  inhibition at 1 µM: 2%

## COc1cc(N2C(=O)Nc3c(C(=O)Nc4ccc(CN5CCCCC5)cc4)sc4ncnc2c34)ccc1Br [Cpd 81, 5-(4-bromo-3-methoxy-phenyl)-4-oxo-4,5-dihydro-3H-1-thia-3,5,6,8-tetraaza-acenaphthylene-2-carboxylic acid (4-piperidin-1-ylmethyl-phenyl)-amide]
[1]
  IC50: 498 nM
[2]
  IC50: 695 nM

## COc1cc(N2C(=O)Nc3c(C(=O)Nc4ccc(CN5CCOCC5)cc4)sc4ncnc2c34)ccc1Br [Cpd 84, 5-(4-bromo-3-methoxy-phenyl)-4-oxo-4,5-dihydro-3H-1-thia-3,5,6,8-tetraaza-acenaphthylene-2-carboxylic acid (4-morpholin-4-ylmethyl-phenyl)-amide]
[1]
  IC50: 776 nM
[2]
  IC50: 518 nM

## COc1cc(NC(=O)c2sc3ncnc4c3c2NC(=O)N4c2ccc(OCc3ccccn3)c(Cl)c2)ccc1OCCN1CCOCC1 [Cpd 86, 5-[3-chloro-4-(pyridin-2-ylmethoxy)-phenyl]-4-oxo-4,5-dihydro-3H-1-thia-3,5,6,8-tetraaza-acenaphthylene-2-carboxylic acid [3-methoxy-4-(2-morpholin-4-yl-ethoxy)-phenyl]-amide]
[1]
  IC50: 83 nM
[2]
  IC50: 350 nM

## Cc1ccc(N2C(=O)Nc3c(C(=O)Nc4ccc(CN5CCCCC5)cc4)sc4ncnc2c34)cc1Br [Cpd 111, 5-(3-bromo-4-methyl-phenyl)-4-oxo-4,5-dihydro-3H-1-thia-3,5,6,8-tetraaza-acenaphthylene-2-carboxylic acid (4-piperidin-1-ylmethyl-phenyl)-amide]
[1]
  IC50: 29 nM
[2]
  IC50: 325 nM
